Experiments:
Test in all cases: NADH consumption, A340
Type in all cases: biochemical
Settings in all cases: NAD(P)H-dependent reduction; co-substrate, pH and temperature of the Km series not given (unit definition: NADH, pH 7.0, 37 C)
[1] = biological target: T1, ANI-GLUD (2-KLG reductase, GLUD) (Aspergillus niger, UniProt A0A1D8RK43)
T1 construct: full length, synthetic gene without stop codon, BamHI/SalI in pET28a(+), His-tagged, E. coli BL21(DE3), Ni-NTA
T1 sequence (A0A1D8RK43 1-331): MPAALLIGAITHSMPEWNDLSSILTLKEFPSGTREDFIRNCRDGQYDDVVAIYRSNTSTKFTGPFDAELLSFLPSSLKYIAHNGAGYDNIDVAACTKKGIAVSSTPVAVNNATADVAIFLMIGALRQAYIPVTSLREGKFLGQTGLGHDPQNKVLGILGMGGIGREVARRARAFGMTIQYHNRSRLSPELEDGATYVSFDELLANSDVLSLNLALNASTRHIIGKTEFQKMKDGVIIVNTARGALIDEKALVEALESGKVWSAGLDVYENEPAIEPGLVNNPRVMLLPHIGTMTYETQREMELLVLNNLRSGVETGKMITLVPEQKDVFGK

[2] = biological target: T2, CFR-2KR (2-KLG reductase, 2kr) (Citrobacter freundii, UniProt A0A0P8I5D5)
T2 construct: gene ghrB; full length, His-tagged from pET28a(+), EcoRI/SalI, E. coli BL21(DE3), Ni-NTA
T2 sequence (A0A0P8I5D5 1-324): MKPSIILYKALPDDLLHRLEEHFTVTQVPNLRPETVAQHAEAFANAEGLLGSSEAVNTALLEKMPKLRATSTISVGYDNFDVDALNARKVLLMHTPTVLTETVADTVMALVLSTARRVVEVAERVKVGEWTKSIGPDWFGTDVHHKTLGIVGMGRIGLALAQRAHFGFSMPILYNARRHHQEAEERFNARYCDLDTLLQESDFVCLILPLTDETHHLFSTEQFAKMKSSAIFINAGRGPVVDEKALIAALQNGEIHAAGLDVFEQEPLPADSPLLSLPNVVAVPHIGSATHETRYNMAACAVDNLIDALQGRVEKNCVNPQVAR

[3] = biological target: T3, ANI-2KR (2-KLG reductase, 2kr) (Aspergillus niger, UniProt A2Q988)
T3 construct: gene An01g07030; full length, synthetic gene without stop codon, BamHI/SalI in pET28a(+), His-tagged, E. coli BL21(DE3), Ni-NTA
T3 sequence (A2Q988 1-339): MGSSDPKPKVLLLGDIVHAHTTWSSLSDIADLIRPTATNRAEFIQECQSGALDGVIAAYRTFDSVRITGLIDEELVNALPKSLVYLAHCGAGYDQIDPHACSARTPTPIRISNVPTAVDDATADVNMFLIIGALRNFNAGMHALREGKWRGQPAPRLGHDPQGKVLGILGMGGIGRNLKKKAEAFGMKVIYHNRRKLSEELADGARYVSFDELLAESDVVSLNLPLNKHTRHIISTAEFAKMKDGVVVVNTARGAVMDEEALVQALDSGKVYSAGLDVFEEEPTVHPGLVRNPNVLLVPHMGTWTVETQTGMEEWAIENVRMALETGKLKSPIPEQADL

Measured: Km

O=C(O)C(=O)[C@@H](O)[C@H](O)[C@@H](O)CO [2-KLG, 2-keto-L-gulonic acid]
Km and Vmax values for 2-KLG reductases: all assays above

Reference: PMC6923176, “High-Throughput Screening of a 2-Keto-L-Gulonic Acid-Producing Gluconobacter oxydans Strain Based on Related Dehydrogenases” (Frontiers in Bioengineering and Biotechnology, 2019)
